This note sets out measurements from patent US20080114047A1 (priority 2003, published 2008).

SMILES strings stand for the structures. “And” between values parts separate entries of the source, which are not always exact repeats. Equal values may be shown once. Where a name gives a salt, the structure may show the parent alone. Read-outs that look alike come from different tables or passages of the source.

In one data set the test system is Trypanosoma cruzi. Kind of data set: Anti-protozoan data: T. cruzi IC50. The data set is classed as cell-based. The note with it: Tables VI(a), VI(c), read-out: T. cruzi IC50.
The subject of a further data set is Plasmodium falciparum. Put plainly: Anti-protozoan data: P. falcip. IC50. The data set is classed as cell-based. The note with it: Tables VI(a), VI(c), read-out: P. falcip. IC50.
The next data set concerns J774 macrophages. Put plainly: Toxicity against J774 macrophages (IC50). It counts as cell-based. The conditions noted are these: Mus musculus, Tables I-III, V.
Data set [1] deals with L. donovani axenic amastigotes. Put plainly: In vitro anti-leishmania activity (IC50 vs. L. donovani axenic amastigotes). The conditions noted are these: for IC50: Leishmania donovani. It counts as cell-based.
The subject of data set [2] is Mycobacterium tuberculosis. Put plainly: Compounds tested against Mycobacterium tuberculosis (MIC90). It counts as cell-based. The note with it: read-out: M. tb. MIC90.
Data set [3] concerns Trypanosoma brucei rhodesiense. Put plainly: Anti-protozoan data: T.b.r. IC50. The data set is classed as cell-based. The note with it: Tables VI(a), VI(c), read-out: T.b.r. IC50.
In a further data set the test system is DNA. Put plainly: DNA binding ΔTm. The note with it: Tables VI(a), VI(c).
In a further data set the test system is Aspergillus fumigatus. Put plainly: Anti-fungal data: Aspergillus fumigatus. It counts as cell-based. The note with it: for MIC80: strain DUMC 168.95; for MIC: strain DUMC 168.95, read-out: Aspergillus. Fumigatus (DUMC 168.95) MIC100.
For another data set, the system named is Cryptococcus neoformans. Put plainly: Anti-fungal data: Cryptococcus neoformans. It counts as cell-based. The conditions noted are these: for MFC / MIC80: strain H99; for MIC: strain H99, read-out: Cryptococcus neoformans (H99) MIC100.
In another data set the test system is Candida albicans. Put plainly: Anti-fungal data: Candida albicans. It counts as cell-based. The conditions noted are these: for MFC / MIC80: strain A39; for MIC: strain A39, read-out: Candida albicans (A39) MIC100.
Setting [4] is: Tables VI(a), VI(c), read-out: Leishmania donovani IC50.
[5] abbreviates: axenic amastigotes, Tables I-V, read-out: IC50 vs. L. donovani.

Usually IC50 stands for the midpoint of a concentration-inhibition curve. The term melting point denotes the temperature of the solid-liquid transition. One may read the MIC90 as an inhibitory concentration at the 90% level, which refers to growth in some studies and to a panel of isolates in others. Consider `Cl.Cl.c1cc(C2=NCCN2)ccc1OCCCOc1ccc(-c2cc3ccc(C4=NCCN4)cc3o2)cc1` [Compound 70, 2-(2-(4-(3-(4-(4,5-Dihydro-1H-imidazol-2-yl)phenoxy)propoxy)phenyl)benzofuran-6-yl)-4,5-dihydro-1H-imidazole dihydrochloride], for which the melting point lay within 283 to 284 °C. Also, the IC50 in the data set with Trypanosoma cruzi was 7.11 µM. Besides, in the data set with Plasmodium falciparum, the IC50 is 0.0418 µM. In addition, it took 2.4 ± 0.1 µM to reach half-maximal inhibition in the data set with J774 macrophages (IC50). The “selectivity for axenic amastigotes over J774 macrophages (fold more active against the parasites compared to the mammalian host cells)” value in data set [1] (L. donovani vs. J774 macrophages) worked out at 5 fold. The half-inhibitory concentration (IC50) in data set [1] (setting [4]) stood at 0.48 ± 0.16 µM. Besides, the concentration for half-maximal inhibition (IC50) in [1] (setting [5]) worked out at 0.48 ± 0.16 µM. Also, the MIC90 in data set [2] is 0.86 µg/mL and 1.5 µM. Inhibition in “in vitro” was half-maximal at 16.8 µM (IC50). Also, the 50% inhibitory concentration (IC50) in data set [3] was 0.144 µM.

For `CC(C)NC(=N)c1ccc(OCCCCCCOc2ccc(-c3cc4ccc(C(=N)NC(C)C)cc4o3)cc2)cc1.Cl.Cl` [Compound 78, 2-(4-(6-(4-(N-Isopropylcarbamimidoyl)phenoxy)hexyloxy)phenyl)-N-isopropylbenzofuran-6-carboxamidine dihydrochloride], the melting point lay in the range of 264 to 268 °C. Further, the half-maximal inhibitory concentration (IC50) in the data set on Trypanosoma cruzi is 3.48 µM. Moreover, the IC50 with Plasmodium falciparum was 0.0519 µM. For the same compound, the IC50 with J774 macrophages came out at 0.73 ± 0.03 µM. Also, the 50% inhibitory concentration (IC50) in data set [1] (setting [4]) came to 2.62 ± 0.35 µM. The concentration for half-maximal inhibition (IC50) in data set [1] (setting [5]) came out at 2.62 ± 0.35 µM. Also, the MIC90 in [2] was 2.11 µg/mL and 3.33 µM. The compound further gave an IC50 in “in vitro” of 4.9 µM. Besides, the IC50 in [3] came to 0.884 µM.

For the compound `CC(C)NC(=N)c1ccc(OCCCOc2ccc(-c3cc4ccc(C(=N)NC(C)C)cc4o3)cc2)cc1.Cl.Cl` [Compound 69, 2-(4-(3-(4-(N-Isopropylcarbamimidoyl)phenoxy)propoxy)phenyl)-N-isopropylbenzofuran-6-carboxamidine dihydrochloride], the melting point was 266 to 270 °C. Also, in the data set with Trypanosoma cruzi, the IC50 was determined as 28.4 µM. For the same compound, in the data set on Plasmodium falciparum, the IC50 was found to be 0.0366 µM. Half-maximal inhibition with J774 macrophages (IC50) required 9.9 ± 1.7 µM. Also, the half-inhibitory concentration (IC50) in [1] (setting [4]) amounted to 3.18 ± 0.19 µM. Also, the 50% inhibitory concentration (IC50) in data set [1] (setting [5]) amounted to 3.18 ± 0.19 µM. Also, the MIC90 in data set [2] is 0.54 µg/mL and 0.92 µM. Also, the IC50 in the data set “in vitro” was found to be 49.9 µM. The IC50 in data set [3] was determined as 0.0881 µM.

As for `Cl.Cl.N=C(N)c1ccc(OCCCCOc2ccc(-c3cc4ccc(C(=N)N)cc4o3)cc2)cc1` [Compound 71, 2-(4-(4-(4-Carbamimidoylphenoxy)butoxy)phenyl)benzofuran-6-carboxamidine dihydrochloride], the melting point lay within 324 to 325 °C. Also, the IC50 with Trypanosoma cruzi was 12.5 µM. The IC50 in the data set on Plasmodium falciparum stood at 0.166 µM. Also, in the data set with J774 macrophages, the IC50 stood at 0.86 ± 0.2 µM. In data set [1] (setting [4]), the IC50 came to 3.22 ± 0.96 µM. The 50% inhibitory concentration (IC50) in [1] (setting [5]) turned out to be 3.22 ± 0.96 µM. For the same compound, the MIC90 in [2] was 0.45 µg/mL and 0.85 µM. This compound gave a concentration for half-maximal inhibition (IC50) in the data set “in vitro” of 14.1 µM. Also, in data set [3], the half-inhibitory concentration (IC50) is 1.06 µM.

The MIC80 is the lowest concentration that inhibits either 80% of growth or 80% of the strains tested, depending on the study. The low end stands for greater potency, the high end for weaker potency. Broadly, the MFC is the smallest concentration meeting the test's criterion for killing the fungus. Read a high MFC as weaker fungicidal potency. On to `Cl.Cl.N=C(N)c1ccc(OCCCCCOc2ccc(-c3cc4cc(C(=N)N)ccc4o3)cc2)cc1` [Compound 50, 2-(4-(5-(4-Carbamimidoylphenoxy)pentyloxy)phenyl)benzofuran-5-carboxamidine dihydrochloride], for which the melting point was 290 °C (dec.). In addition, the “DNA binding Δ Tm” value in the data set with DNA turned out to be 12.7. For the same compound, the half-maximal inhibitory concentration (IC50) in the data set on Trypanosoma cruzi was 4.71 µM. Also, in the data set with Aspergillus fumigatus, the MIC80 came to 6.25 µg/mL and the MIC is above 100 µg/mL. In the data set on Plasmodium falciparum, the IC50 stood at 0.313 µM. Also, the MIC90 in [2] is 1.01 µg/mL and 1.84 µM. Moreover, in the data set on Cryptococcus neoformans, the minimum fungicidal concentration (MFC) came to 12.5 µg/mL, the MIC80 is 0.39 µg/mL and the MIC came to 0.78 µg/mL. The compound also showed a 50% inhibitory concentration (IC50) in “in vitro” of 4.19 µM. Besides, in the data set on Candida albicans, the MFC was 3.12 µg/mL, the MIC80 was 0.39 µg/mL and the MIC was determined as 0.78 µg/mL. In addition, the IC50 in data set [3] worked out at 0.369 µM.

Compound `Cl.Cl.c1cc(OCCCOc2ccc(C3=NCCN3)cc2)cc(-c2cc3cc(C4=NCCN4)ccc3o2)c1` [Compound 34, 2-(2-(3-(3-(4-(4,5-Dihydro-1H-imidazol-2-yl)phenoxy)propoxy)phenyl)benzofuran-5-yl) -4,5-dihydro-1H-imidazole dihydrochloride] gave a melting point of 193 to 197 °C. In addition, the 50% inhibitory concentration (IC50) in the data set with Plasmodium falciparum came to 0.108 µM. The compound further displayed an IC50 in the data set on J774 macrophages of 7.1 ± 0.8 µM. For the same compound, the half-inhibitory concentration (IC50) in data set [1] (setting [4]) was 5.93 ± 0.04 µM. Further, the IC50 in data set [1] (setting [5]) was found to be 5.93 ± 0.04 µM. In “in vitro”, this compound came in with a concentration for half-maximal inhibition (IC50) of 6.52 µM. The IC50 in data set [3] amounted to 1.17 µM.

`Cl.Cl.N=C(N)c1ccc(OCCCCCOc2cccc(-c3cc4cc(C(=N)N)ccc4o3)c2)cc1` [Compound 38, 2-(3-(5-(4-Carbamimidoylphenoxy)pentyloxy)phenyl)benzofuran-5-carboxamidine dihydrochloride]: the melting point was in the range of 165 to 168 °C. For the same compound, the “DNA binding Δ Tm” value with DNA is on record as 21.1. Further, in the data set with Trypanosoma cruzi, the IC50 worked out at 7.78 µM. In addition, in the data set with Aspergillus fumigatus, the MIC80 was 50 µg/mL and the MIC is above 100 µg/mL. Moreover, the IC50 with Plasmodium falciparum was 0.428 µM. For the same compound, the IC50 in [1] (setting [4]) stood at 10.5 ± 2.11 µM. Moreover, the MIC90 in data set [2] was 1.96 µg/mL and 3.48 µM. In the data set with Cryptococcus neoformans, the MFC stood at 3.12 µg/mL, the MIC80 was found to be 0.39 µg/mL and the MIC worked out at 0.781 µg/mL. The same compound displayed a half-inhibitory concentration (IC50) in “in vitro” of 3.02 µM. Moreover, in the data set on Candida albicans, the MFC is 12.5 µg/mL, the MIC80 was determined as 0.78 µg/mL and the MIC worked out at 6.25 µg/mL. Moreover, the IC50 in data set [3] was found to be 0.863 µM.

On to `CC(C)NC(=N)c1ccc2oc(CCCCc3cc4cc(C(=N)NC(C)C)ccc4o3)cc2c1` [Compound 21, dihydrochloride], for which, in the data set on DNA, the “DNA binding Δ Tm” value was determined as 6.60. In addition, the IC50 in the data set with Trypanosoma cruzi is 69.1 µM; in the data set on Plasmodium falciparum it was 0.0098 µM; in data set [1] (setting [4]), 12.7 ± 2.27 µM; in “in vitro”, above 163 µM; in data set [3], 0.0988 µM. Moreover, the MIC80 with Aspergillus fumigatus was above 100 µg/mL; in the data set with Cryptococcus neoformans, 100 µg/mL; against Candida albicans, 10 µg/mL. The figures for the MIC with Aspergillus fumigatus, with Cryptococcus neoformans and in the data set on Candida albicans were above 100 µg/mL, 100 µg/mL and 10 µg/mL, respectively. Besides, the MIC90 in [2] was 0.07 µg/mL and 0.13 µM. Moreover, the MFC with Cryptococcus neoformans and in the data set with Candida albicans was above 100 µg/mL each time.

Regarding `Cl.Cl.N=C(N)c1ccc(OCCCCOc2cccc(-c3cc4cc(C(=N)N)ccc4o3)c2)cc1` [Compound 35, 2-(3-(4-(4-Carbamimidoylphenoxy)butoxy)phenyl)benzofuran-5-carboxamidine dihydrochloride], the melting point fell in the range of 284 to 286 °C. Also, the IC50 with Plasmodium falciparum stood at 0.0755 µM. This compound also had an IC50 with J774 macrophages of 9.6 ± 1.5 µM. The half-inhibitory concentration (IC50) in data set [1] (setting [4]) stood at 4.45 ± 1.93 µM. In addition, the IC50 in data set [1] (setting [5]) was determined as 4.45 ± 1.93 µM. Moreover, it took 8.06 µM to reach half-maximal inhibition in “in vitro” (IC50). For the same compound, the IC50 in [3] amounted to 0.779 µM.

`Cl.Cl.N=C(N)c1ccc(OCCCCOc2cccc(-c3cc4ccc(C(=N)N)cc4o3)c2)cc1` [Compound 59, 2-(3-(4-(4-Carbamimidoylphenoxy)butoxy)phenyl)benzofuran-6-carboxamidine dihydrochloride] displayed a melting point of 278 to 280 °C. In addition, the concentration for half-maximal inhibition (IC50) with Plasmodium falciparum came to 0.321 µM. Besides, in the data set with J774 macrophages, the concentration for half-maximal inhibition (IC50) was found to be 11 ± 2 µM. Moreover, in data set [1] (setting [4]), the IC50 worked out at 5.93 ± 0.24 µM. For the same compound, the half-inhibitory concentration (IC50) in data set [1] (setting [5]) is 5.93 ± 0.24 µM. In addition, the midpoint of inhibition in “in vitro”, the IC50, lay at 7.57 µM. In data set [3], the IC50 worked out at 1.33 µM.

Consider `N=C(N)c1ccc(OCCCCCOc2ccc(C(=N)N)cc2)cc1` [Pentamidine, pentamidine, reference compound], for which the figures for the IC50 (in the data set with J774 macrophages; in data set [1] (setting [5])) were 23 ± 6 µM and 2 ± 0.6 µM, respectively.
